# Source: patent publication US7282215B2, “Supports for photosensitizer formulations” (The University of British Columbia, priority 2000, dated 2007)
# Marks after values point to notes of the source that are not given here.
# Columns and labels:
# [1] = test system: L1210 cells; experiment: In vitro cellular uptake of photosensitizer formulations; assay type: cell-based; conditions: 3 μg/ml, DMEM 10% FBS, B-B3 in P123 copolymer, BPD-MA liposomal
# Experimental: The protocol for setting up the cell cultures and conditions for the cellular assay essentially followed Richter et al. (Proc. SPIE, 2078: 293-304, September 1993). L1210 cells in DMEM and 10% FBS (single experiment, 3 sets) were incubated with the formulations at a concentration of 3 μg/ml and examined for uptake in the cells over time. Cells were recovered by centrifugation, the pellet briefly rinsed, and the cells lysed by freeze thawing in the presence of 2% Triton X-100®. An equal volume of methanol was added and fluorescence was read at 694 nm (λex 440 nm).
# [2] = test system: L1210 cells; experiment: In vitro phototoxicity (MTT assay after light exposure); assay type: cell-based
# Experimental: Exposure to drugs was carried out in the presence and absence of fetal calf serum (FCS) as a model to study transfer of drug to cells in vivo. […] A suspension of L1210 cells was prepared and exposed to various drug formulations (drug concentrations ranging from 0-50 ng/ml) either in the absence or presence of 10% fetal calf serum (FCS). One hour later, the drug was removed by pelleting the cells by centrifugation. The pellet was briefly washed with 1 ml DME and resuspended in 5% FCS/DME. 100 μl of the cell suspension was aliquoted into 6 wells of a 96 well plate, and the plate exposed to light at 10 J/cm^2. Viability was determined 24 h post exposure using the MTT assay (Mosmann, J. Immunol. Meth. 65:55-63, 1983).
# [3] = Drug loading of liposomal versus 10% P123 formulations; assay type: physicochemical; conditions: prepared at 2 mg/ml
# Experimental: 5 mg drug and lipids (40% EPG in DMPC) are combined in CH2Cl2 at a drug to lipid ratio of 1:10 w/w in 250 ml round bottom flask. The maximum concentration of drug in solvent is 2 mg/ml. CH2Cl2 is removed rapidly as described in Example 5. The resulting thin film is hydrated with 2.5 ml lactose solution (9.5% w/v) using hand swirling with glass beads at 40° C. Extrusion using Model 4T (Lipex Biomembranes Inc. B.C., Canada) is carried out with the thermostat set at 40° C. The multilamellar vesicles (MLVs) arising from hydration steps of the liposomal formulation were also examined under the microscope. MLVs are successively extruded 5 times through each of the 400 nm, 200 nm and 100 nm polycarbonate membranes (Nuclepore PC, Costar). Extruded samples were diluted 1:100 in PBS (pH 7.4) and the absorbance determined at 690 nm wavelength.
# In this experiment liposomal and block copolymer (micellar) photosensitizer formulations of A- and B-ring compounds of EA6 and B3 were compared. Each of the photosensitizer samples was prepared at a final drug concentration of 2 mg/ml. The block copolymer P123, and the liposomal formulations were prepared as described in the Examples 5 and 6, respectively.
# [4] = Drug loading attainable in 10% P123 (summary); assay type: physicochemical
# Experimental: In the Example section below, formulation of the following A-ring compounds: BPD-MA, A-EA6, A-B3; B-ring compounds; B-EA6, and B-B3; and other photosensitizers such as dihydroxychlorins and pyropheophorbides, with P123 illustrate the versatility of this particular block copolymer. This includes A-ring compounds such as BPD-MA where block copolymers could be used to formulate an alternative product to a concentration as high as 4 mg/ml in 10% P123, and also A-EA6 and A-B3, all of which formulate very readily. B-ring compounds have lower drug loading characteristics, but concentrations of approximately 1.8 mg/ml are typical for B-B3, and lower for B-EA6. A wide range of other compounds e.g. pyropheophorbides and various dihydroxychlorins also formulate with ease to give final formulations at 2 mg/ml in 10% P123 in non-optimized systems. Therefore both the drug loading, and stability could be improved further by adjustments to composition, pH, and/or methodology of formulation.
# [5] = test system: M1 rhabdomyosarcoma tumor; experiment: PDT tumor recurrence in tumor mouse model; assay type: in vivo, DBA/2 mouse
# Experimental: Photosensitizer formulations were prepared in 10% w/v Pluronics as described in Example 4. BPD-MA was formulated in F127. B-ring compounds B-EA6 and B-B3, were prepared in P123 due to insufficient drug loading in F127. Liposomal BPD-MA formulation was Verteporfin™ and B-ring compounds were formulated in the same lipid composition. Where DMSO/plasma preparations were made, the DMSO dissolved drug was added directly to mouse plasma and the drug association with different plasma components was observed.
# In these experiments the tumor model used was the DBA/2 mouse (males) inoculated intradermally with M1 rhabdomyosarcoma tumor cells (M1, ATCC. When tumors reached a diameter of 4-6 mm, the mice (n=10, unless other wise stated) were treated with photodynamic therapy (PDT). PDT involved intravenous injection of the formulated drug in 0.2 mL volume of PBS. This was followed by exposure of the tumor region to laser light (Argon pumped dye laser (5W), 690 nm, 50J/cm2) 15 min later. Animals were then monitored for tumor recurrence over a 20 day period post treatment.
# [6] = test system: arthritis in the MRL/1pr mouse; experiment: Transcutaneous PDT of arthritis, ankle width; assay type: in vivo; conditions: 0.5 mg/kg i.v.
# Experimental: Arthritis in the MRL/1pr mouse strain was enhanced by giving 2 intradermal injections (thoracic and inguinal sites) with 0.05 ml of complete Freunds adjuvant containing 10 mg/ml heat-inactivated M. tuberculosis. PDT was given on days 0, 10 and 20 following CFA treatment. PDT was carnied out as follows; 3 groups of MRL/1pr mice were injected intravenously with B-B3 at 0.5 mg/kg (copolymer or liposomal formulations), after which they were protected from light. The third group was injected with copolymer alone at an equivalent copolymer concentration to that found in the formulation. An hour later, they were exposed to light at 80 J/cm^2 for […] (8 mW/cm^2).
# Ankle width measurements were taken every 5 days prior to PDT treatment.
# [7] = Carrier Liposomal, −FCS, 1 h drug, light 10 J/cm^2, MTT 24 h
# [8] = Liposomal, 1.0 mg/kg i.v., 690 nm 50J/cm2 15 min later, Day 7
# [9] = liposomal formulation, light 80 J/cm^2
smiles,measurement,setting,value
C=Cc1c(C)c2cc3nc(cc4[nH]c(cc5nc(cc1[nH]2)C1(C)C5=CC=C(C(=O)O)C1C(=O)OC)c(C)c4CCC(=O)OC)C(CCC(=O)OC)=C3C (stereo not drawn) [B-B3],Incubation time to 50% uptake level,[1],close to ‘zero’ incubation time
same,Incubation time to peak / saturation of uptake,[1],around 20 min
same,LD50,"[2]; Carrier Copolymer (P123), +FCS (10%)",16.6* ng/ml
same,LD50,"[2]; Carrier Copolymer (P123), −FCS",0.68* ng/ml
same,LD50,"[2]; Carrier DMSO, +FCS (10%)",37.0 ng/mL
same,LD50,"[2]; Carrier DMSO, −FCS",7.2 ng/mL
same,LD50,"[2]; Carrier Liposomal, +FCS (10%)",30.0 ng/mL
same,LD50,[2]; [7],3.0 ng/mL
same,"Drug loading, P123",[3]; Pluronic P123 10% weight/volume,1.24 mg/mL
same,"Drug loading, Liposome",[3]; liposomal formulation,Very low
same,Formulated drug concentration,[4],approximately 1.8 mg/ml
same,Percent (%) Mice Tumor Free,[5]; [8],0^2%
same,Percent (%) Mice Tumor Free,"[5]; Pluronic P123, 1.0 mg/kg, Day 7",100%
same,Percent (%) Mice Tumor Free,"[5]; Pluronic P123, 1.0 mg/kg, Day 14",80%
same,Percent (%) Mice Tumor Free,"[5]; Pluronic P123, 1.0 mg/kg, Day 20",60%
same,Percent (%) Mice Tumor Free,"[5]; Pluronic P123, 1.2 mg/kg, Day 7, n = 3",100^3%
same,Percent (%) Mice Tumor Free,"[5]; Pluronic P123, 1.2 mg/kg, Day 14, n = 3",67^3%
same,Percent (%) Mice Tumor Free,"[5]; Pluronic P123, 1.2 mg/kg, Day 20, n = 3",67^3%
same,Percent (%) Mice Tumor Free,"[5]; Pluronic P123, 1.25 mg/kg, Day 7",100%
same,Percent (%) Mice Tumor Free,"[5]; Pluronic P123, 1.25 mg/kg, Day 14",100%
same,Percent (%) Mice Tumor Free,"[5]; Pluronic P123, 1.25 mg/kg, Day 20",80%
same,PDT efficacy in tumor model,[5]; plasma /DMSO preparation,completely ineffective
same,Control of inflammation (increase in ankle swelling),"[6]; copolymer formulation, light 80 J/cm^2 1 h later, PDT days 0, 10, 20",highly effective in controlling the inflammation
same,"Control of inflammation (ankle swelling), after day 25",[6]; [9],exacerbation of the inflammatory condition
same,"Control of inflammation (ankle swelling), earlier part of the study",[6]; [9],better suppression of the inflammation compared to the controls
"C=Cc1c(C)c2cc3nc(cc4[nH]c(cc5nc(cc1[nH]2)C(C)=C5CCC(=O)O)c(CCC(=O)OC)c4C)[C@@]1(C)C3=CC=C(C(=O)OC)[C@H]1C(=O)OC [BPD-MA, benzoporphyrin derivative mono-acid-ring A, reference compound]",Incubation time to 50% uptake level,[1],approximately 5 min
same,Incubation time to peak / saturation of uptake,[1],30 min
same,LD50,"[2]; Carrier Liposomal, +FCS (10%)",38.0 ng/mL
same,LD50,[2]; [7],4.0 ng/mL
same,Formulated drug concentration,[4],≤ 4 mg/mL
same,Percent (%) Mice Tumor Free,[5]; [8],100%
same,Percent (%) Mice Tumor Free,"[5]; Liposomal, 1.0 mg/kg, Day 14",100%
same,Percent (%) Mice Tumor Free,"[5]; Liposomal, 1.0 mg/kg, Day 20",30%
same,Percent (%) Mice Tumor Free,"[5]; Pluronic F127, 1.0 mg/kg, Day 7",100%
same,Percent (%) Mice Tumor Free,"[5]; Pluronic F127, 1.0 mg/kg, Day 14",60%
same,Percent (%) Mice Tumor Free,"[5]; Pluronic F127, 1.0 mg/kg, Day 20",60%
